Values of other authors, collected in patent US20070092561A1, “Water-Soluble Aspirin Composition” (priority 2005, published 2007).
Read-outs that look alike come from different tables or passages of the source.

CC(=O)Oc1ccccc1C(=O)O [aspirin]
occurrence of side-effects (gastric irritation, inflammation, heartburn, nausea, pain) (aspirin users): 2-10% | occurrence of side-effects (gastric irritation, inflammation, heartburn, nausea, pain) (in chronic arthritis): about 25%
